Experimental data from article PMC11361638, “Chemical genetic screens reveal defective lysosomal trafficking as synthetic lethal with NF1 loss” (Journal of Cell Science, 2024).

Molecular target: T1, BORCS7 (Homo sapiens, UniProt Q96B45)
T1 construct: endogenous full-length protein in U87-MG cells, subunit of the eight-protein BORC
T1 sequence (Q96B45 1-106): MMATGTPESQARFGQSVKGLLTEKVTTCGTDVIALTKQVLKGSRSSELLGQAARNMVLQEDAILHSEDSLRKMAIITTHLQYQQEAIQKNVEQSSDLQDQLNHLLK
Test: click-chemistry pulldown on alkyne resin, LC-MS/MS
Assay type: cell-based
Conditions: U87-MG cells treated with 2 µM for 2 h, lysed in 8 M urea; labelled compound; binding subunit within BORC not resolved

`Cn1cnnc1S/C=C/C(=O)c1ccc(CCN=[N+]=[N-])cc1` [az-Y102] was tested, and the iBAQ area ratio was “Click-chemistry enriched pulldown results for p21 and BORCS7”.
